# Experimental data from patent US12220440B2, “Drug composition, method for treating infection, disinfecting composition, and drug adjuvant” (priority 2022, dated 2025).
# Read-outs that look alike come from different tables or passages of the source. Peptide text beside a SMILES is read from it.
# Experiments:
# Type in all cases: cell-based
# [1] = system: mcr-1-bearing E. coli J53; assay: microbe, parasite or virus in culture; settings: 20 μg/ml of otilonium bromide
# Source text: E. coli J53 strain carrying a natural mcr-1-bearing IncI2 plasmid (33 kb, KX711706.1) is used to screen and identify colistin adjuvants which could enhance the antibacterial activity of colistin.
# [2] = system: mcr-1-bearing E. coli J53; assay: SYTOX Green membrane permeability staining; settings: each drug individually
# Source text: SYTOX™ Green (available from ThermoFisher Scientific) staining analysis assesses the membrane permeability of colistin-resistant E. coli before and after treatment with the colistin and otilonium bromide combination. SYTOX Green is a green-fluorescent nucleotide dye used to test membrane permeability and membrane integrity. Green fluorescence is detected by fluorescence spectrometer when bacterial cell integrity is destroyed and membrane permeability increases.
# [3] = system: A. baumannii (colistin-resistant); assay: MIC, colistin-resistant A. baumannii isolates, with and without otilonium bromide; settings: for MIC: Acinetobacter baumannii
# [4] = system: colistin-susceptible E. coli J53; assay: Killing of starvation-induced tolerant cells; settings: with otilonium bromide, 24-hour treatment
# Description: (§1) Starvation-induced bacterial sub-population tolerant cells of colistin-resistant and colistin-susceptible E. coli and A. baumannii strains are tested against the bactericidal effect of the combination of otilonium bromide and colistin. […] The incubation temperature is 37° C. Ob and colistin are added at the same time.
# A. baumannii 17978 = assay: Killing of starvation-induced tolerant cells; settings: with otilonium bromide, 24-hour treatment
# Description: as §1
# [5] = system: P. aeruginosa (colistin-susceptible); assay: MIC, colistin-susceptible P. aeruginosa isolates, with and without otilonium bromide; settings: Pseudomonas aeruginosa
# mcr-1-bearing E. coli [6] = assay: LIVE/DEAD cell viability assay, fluorescence microscopy; settings: 8 μg/ml of colistin alone
# Description: Fluorescence microscopy quantifies the number of live and dead cells and determines the degree of reduction in colistin concentration in the drug combination required for effective eradication of the test organism. […] However, in the presence of 20 μg/ml of otilonium bromide, 4 μg/ml of colistin eradicates >97% of the bacteria.
# [7] = system: colistin-susceptible E. coli; assay: Time-kill curves
# Description: (§2) However, the effective bactericidal concentration of colistin could be reduced to 8 μg/ml in the presence of 20 μg/ml of otilonium bromide. For colistin-susceptible E. coli, 8 μg/ml of colistin is required to eradicate the strains. However, in the presence of 20 μg/ml of otilonium bromide 1 μg/ml colistin is sufficient to achieve complete eradication of the organism. […] Thus, without intending to be limited by theory, it is believed that this synergistic mechanism is not limited to the inhibition of the colistin resistance mechanism.
# [8] = system: colistin-resistant E. coli; assay: Time-kill curves
# Description: as §2
# S. Typhimurium PY01 = assay: MIC, colistin-susceptible S. Typhimurium, with and without otilonium bromide; settings: Salmonella enterica
# [9] = system: P. aeruginosa PAO1 and PAERC 11.603; assay: Divalent ion MIC-dependency in supplemented MHB
# Description: In FIGS. 5e and 5f, colistin MICs of P. aeruginosa PAO1 and PAERC 11.603, respectively, are determined in MHB supplemented with different Ca^2+ ion concentrations.
# Accordingly, it is believed that the addition of a chelant; or a chelant for divalent ions; or a divalent cation chelant, may further improve the activity of the drug formulation, method of use/treatment, disinfection composition, etc. of the present invention.
# E. coli J53 = assay: MIC checkerboard dilution assay, otilonium bromide vs. colistin; settings: Escherichia coli
# mcr-1-bearing E. coli [10] = settings: colistin 32 μg/ml for 24 hours; initial ~10^8 CFU/mL in saline
# Description: as §1
# [11] = in the presence of 20 μg/ml of otilonium bromide
smiles,measurement,setting,value
"CCC(C)CCCC(=O)N[C@@H](CCN)C(=O)N[C@H](C(=O)N[C@@H](CCN)C(=O)N[C@H]1CCNC(=O)[C@H]([C@@H](C)O)NC(=O)[C@H](CCN)NC(=O)[C@H](CCN)NC(=O)[C@H](CC(C)C)NC(=O)[C@@H](CC(C)C)NC(=O)[C@H](CCN)NC1=O)[C@@H](C)O (stereo partly drawn) [Colistin] (HELM PEPTIDE1{[CCC(C)CCCC(=O)[*:2]].[Dab].T.[Dab].[Dab].[Dab].[dL].L.[Dab].[Dab].T}$PEPTIDE1,PEPTIDE1,5:R3-11:R2$$$V2.0)",MIC,"[1]; Escherichia coli, read-out: colistin MIC (minimum inhibitory concentration), mcr-1-bearing E. coli J53",0.28 µg/mL
same,reduction in colistin MIC,[1]; mcr-1-bearing E. coli J53,32 fold
same,SYTOX Green fluorescence (membrane permeability),[2],significant increase in fluorescence
same,"Colistin MIC, Colistin","[3]; A. baumannii ABJZ-46, colistin-resistant, colistin alone",4 µg/mL
same,"Colistin MIC, Colistin","[3]; A. baumannii ABJZ-50, colistin-resistant, colistin alone",4 µg/mL
same,"Colistin MIC, Colistin","[3]; A. baumannii ABJZ-72, colistin-resistant, colistin alone",4 µg/mL
same,MIC,"[3]; ATCC17978, read-out: Colistin MIC, Colistin + 10 ug/ml Ob, A. baumannii ATCC17978, colistin-resistant, in the presence of 10 ug/ml Ob",0.125 µg/mL
same,MIC,"[3]; read-out: Colistin MIC, Colistin + 10 ug/ml Ob, A. baumannii ABJZ-45, colistin-resistant, in the presence of 10 ug/ml Ob",0.0625 µg/mL
same,MIC,"[3]; read-out: Colistin MIC, Colistin + 10 ug/ml Ob, A. baumannii ABJZ-46, colistin-resistant, in the presence of 10 ug/ml Ob",0.5 µg/mL
same,MIC,"[3]; read-out: Colistin MIC, Colistin + 10 ug/ml Ob, A. baumannii ABJZ-50, colistin-resistant, in the presence of 10 ug/ml Ob",0.25 µg/mL
same,MIC,"[3]; read-out: Colistin MIC, Colistin + 10 ug/ml Ob, A. baumannii ABJZ-72, colistin-resistant, in the presence of 10 ug/ml Ob",0.125 µg/mL
same,MIC,"[3]; A. baumannii ABJZ-45, colistin-resistant, colistin alone, read-out: Colistin MIC, Colistin",4 µg/mL
same,MIC,"[3]; A. baumannii ATCC17978, colistin-resistant, colistin alone, read-out: Colistin MIC, Colistin",4 µg/mL
same,concentration of colistin required to completely eradicate tolerant sub-population,[4],1 µg/mL
same,concentration of colistin required to completely eradicate tolerant sub-population,A. baumannii 17978,1 µg/mL
same,MIC,"[5]; P. aeruginosa PA01, colistin-susceptible, colistin alone, read-out: Colistin MIC, Colistin",2 µg/mL
same,MIC,"[5]; P. aeruginosa PA01, colistin-susceptible, in the presence of 10 ug/ml Ob, read-out: Colistin MIC, Colistin + 10 ug/ml Ob",0.5 µg/mL
same,MIC,"[5]; P. aeruginosa PA01, colistin-susceptible, in the presence of 20 ug/ml Ob, read-out: Colistin MIC, Colistin + 20 ug/ml Ob",0.25 µg/mL
same,MIC,"[5]; P. aeruginosa PAER 2011-3010, colistin-susceptible, colistin alone, read-out: Colistin MIC, Colistin",2 µg/mL
same,MIC,"[5]; P. aeruginosa PAER 2011-3010, colistin-susceptible, in the presence of 10 ug/ml Ob, read-out: Colistin MIC, Colistin + 10 ug/ml Ob",1 µg/mL
same,MIC,"[5]; P. aeruginosa PAER 2011-3010, colistin-susceptible, in the presence of 20 ug/ml Ob, read-out: Colistin MIC, Colistin + 20 ug/ml Ob",0.25 µg/mL
same,MIC,"[5]; P. aeruginosa PAER 2011-3252, colistin-susceptible, colistin alone, read-out: Colistin MIC, Colistin",2 µg/mL
same,MIC,"[5]; P. aeruginosa PAER 2011-3252, colistin-susceptible, in the presence of 10 ug/ml Ob, read-out: Colistin MIC, Colistin + 10 ug/ml Ob",0.5 µg/mL
same,MIC,"[5]; P. aeruginosa PAER 2011-3252, colistin-susceptible, in the presence of 20 ug/ml Ob, read-out: Colistin MIC, Colistin + 20 ug/ml Ob",0.25 µg/mL
same,MIC,"[5]; P. aeruginosa PAER 2012-1527, colistin-susceptible, colistin alone, read-out: Colistin MIC, Colistin",2 µg/mL
same,MIC,"[5]; P. aeruginosa PAER 2012-1527, colistin-susceptible, in the presence of 10 ug/ml Ob, read-out: Colistin MIC, Colistin + 10 ug/ml Ob",2 µg/mL
same,MIC,"[5]; P. aeruginosa PAER 2012-1527, colistin-susceptible, in the presence of 20 ug/ml Ob, read-out: Colistin MIC, Colistin + 20 ug/ml Ob",0.5 µg/mL
same,MIC,"[5]; P. aeruginosa PAERC 10.296, colistin-susceptible, colistin alone, read-out: Colistin MIC, Colistin",2 µg/mL
same,MIC,"[5]; P. aeruginosa PAERC 10.296, colistin-susceptible, in the presence of 10 ug/ml Ob, read-out: Colistin MIC, Colistin + 10 ug/ml Ob",0.0625 µg/mL
same,MIC,"[5]; P. aeruginosa PAERC 10.296, colistin-susceptible, in the presence of 20 ug/ml Ob, read-out: Colistin MIC, Colistin + 20 ug/ml Ob",0.0625 µg/mL
same,MIC,"[5]; P. aeruginosa PAERC 11.2309, colistin-susceptible, colistin alone, read-out: Colistin MIC, Colistin",2 µg/mL
same,MIC,"[5]; P. aeruginosa PAERC 11.2309, colistin-susceptible, in the presence of 10 ug/ml Ob, read-out: Colistin MIC, Colistin + 10 ug/ml Ob",0.5 µg/mL
same,MIC,"[5]; P. aeruginosa PAERC 11.2309, colistin-susceptible, in the presence of 20 ug/ml Ob, read-out: Colistin MIC, Colistin + 20 ug/ml Ob",2 µg/mL
same,MIC,"[5]; P. aeruginosa PAERC 11.236, colistin-susceptible, colistin alone, read-out: Colistin MIC, Colistin",2 µg/mL
same,MIC,"[5]; P. aeruginosa PAERC 11.236, colistin-susceptible, in the presence of 10 ug/ml Ob, read-out: Colistin MIC, Colistin + 10 ug/ml Ob",0.5 µg/mL
same,MIC,"[5]; P. aeruginosa PAERC 11.236, colistin-susceptible, in the presence of 20 ug/ml Ob, read-out: Colistin MIC, Colistin + 20 ug/ml Ob",0.5 µg/mL
same,MIC,"[5]; P. aeruginosa PAERC 11.603, colistin-susceptible, colistin alone, read-out: Colistin MIC, Colistin",2 µg/mL
same,MIC,"[5]; P. aeruginosa PAERC 11.603, colistin-susceptible, in the presence of 10 ug/ml Ob, read-out: Colistin MIC, Colistin + 10 ug/ml Ob",0.5 µg/mL
same,MIC,"[5]; P. aeruginosa PAERC 11.603, colistin-susceptible, in the presence of 20 ug/ml Ob, read-out: Colistin MIC, Colistin + 20 ug/ml Ob",0.25 µg/mL
same,MIC,"[5]; P. aeruginosa PAERC 12.1478, colistin-susceptible, colistin alone, read-out: Colistin MIC, Colistin",2 µg/mL
same,MIC,"[5]; P. aeruginosa PAERC 12.1478, colistin-susceptible, in the presence of 10 ug/ml Ob, read-out: Colistin MIC, Colistin + 10 ug/ml Ob",0.5 µg/mL
same,MIC,"[5]; P. aeruginosa PAERC 12.1478, colistin-susceptible, in the presence of 20 ug/ml Ob, read-out: Colistin MIC, Colistin + 20 ug/ml Ob",0.125 µg/mL
same,live/dead state of cells,mcr-1-bearing E. coli [6],most or all mcr-1-bearing E. coli strains were alive
same,colistin required to eradicate the strains (time-kill),[7]; colistin alone,8 µg/mL
same,colistin sufficient for complete eradication (time-kill),[7]; [11],1 µg/mL
same,colistin concentration inhibiting growth (time-kill),[8]; colistin alone,≥ 32 µg/mL
same,effective bactericidal concentration of colistin (time-kill),[8]; [11],8 µg/mL
same,MIC,"S. Typhimurium PY01; colistin alone, read-out: Colistin MIC, Colistin",2 µg/mL
same,MIC,"S. Typhimurium PY01; in the presence of 10 ug/ml Ob, read-out: Colistin MIC, Colistin + 10 ug/ml Ob",0.125 µg/mL
same,MIC,"S. Typhimurium PY01; in the presence of 20 ug/ml Ob, read-out: Colistin MIC, Colistin + 20 ug/ml Ob",0.03 µg/mL
same,effect of supplemented Ca2+ and Mg2+ on MIC,[9],increase the MIC
same,MIC,E. coli J53; 10 μg/ml of otilonium bromide,≤ 0.016 µg/mL
same,MIC,E. coli J53; colistin alone,1 µg/mL
same,size of the viable tolerant population,mcr-1-bearing E. coli [10],5*10^5 CFU/ml
